The values below come from patent US11944632B2, “Use of sodium dichloroisocyanurate (NaDCC) and a pharmaceutical formulation prepared therefrom” (SAVA HEALTHCARE LTD, priority 2020, dated 2024).

Data set [1] has as its system Escherichia coli. The following applies: cited from earlier work.
Data set [2] relates to Bacterial membrane. The settings on record: cited from earlier work.
Data set [3] relates to microbial load of Salacia extract. Kind of data set: % microbial load reduction in Salacia extract. The settings on record: for Total cfu/g: untreated 21000. An excerpt: Example 4: % Microbial Load Reduction in Ayurvedic Herbs and Extracts by Using Sodium Dichloroisocyanurate (NaDCC)
For data set [4], the system named is Bacillus licheniformis, and Bacillus paralicheniformis. Kind of data set: Susceptibility of bacteria isolated from Salacia reticulata to NaDCC. It counts as cell-based. The protocol: (§1) The bacteria (Bacillus licheniformis, and Bacillus paralicheniformis) and fungus (Aspergillus sps) isolated from the Salacia reticulata and bacteria Bacillus licheniformis isolated from Garcinia cambogia extract was tested for susceptibility for the sensitivity towards NaDCC.

Data set [5] relates to Aspergillus sps. The data set is described as follows: Susceptibility of fungus isolated from Salacia reticulata to NaDCC. In kind it is cell-based. The procedure:
as §1

Data set [6] relates to Bacillus licheniformis. The data set is described as follows: Susceptibility of bacteria isolated from Garcinia cambogia extract to NaDCC. In kind it is cell-based. The protocol: as §1
For data set [7] the following is noted: temperate and tropical climates; cited from earlier work.
Data set [8] deals with coliforms and E. coli. The following applies: 25 mg/ml, raw river water; cited from earlier work.
In data set [9] the test system is 29 Gram-positive and 29 Gram-negative bacteria, as well as 66 fungi. The settings on record: independent of pH and temperature; cited from earlier work.
Data set [10] in a line: Stability of NaDCC solution (HDPE bottle). The settings on record: tables 6 to 9.
The subject of data set [11] is mammalian cell vero6. Kind of data set: Anti-COVID activity: cell survival (cytotoxicity). The settings on record: vero6 cells infected with COVID-19 virus.
Data set [12] concerns COVID-19 virus. The data set is described as follows: Anti-COVID activity: inhibition of virus replication. The settings on record: Severe acute respiratory syndrome coronavirus 2, read-out: Inhibition of the virus replication.
Data set [13] can be described thus: Cyanuric acid and free available chlorine in lung homogenate after NaDCC DPI. The settings on record: administered as a DPI.
Description: Further, the so obtained NaDCC DPI was clinically assessed by determining the amount of cyanuric acid in the tissues.
The mark [14] stands for this setting: NaDCC 0.05% to 5% mixed with Salacia extract (inference).

Consider `OCl` [HOCl, Hypochlorous acid], for which, in data set [1] (Escherichia coli), the “HOCl concentration that completely inhibited cell division” value is 50 µM. For the same compound, in data set [1] (read-out: HOCl required for 50% inhibition of bacterial growth, 5×10^8 Escherichia coli/ml), the IC50 was 20 µM. Further, in [2], the “Concentration below which bacterial membrane disruption and release of cell contents is not observed” value is reported as “below 5 mM”.
The term inhibition denotes the percentage by which the read-out fell short of the control. As to `O=c1[n-]c(=O)n(Cl)c(=O)n1Cl.[Na+]` [NaDCC, Sodium 3,5-dichloro-2,4,6-trioxo-1,3,5-triazinan-1-ide], the Total cfu/g in data set [3] (0.02 g NaDCC in 10 g Salacia extract (0.2%), batch RDP/SR/073) is listed as less than 10 cfu/g; in data set [3] (0.04 g NaDCC in 10 g Salacia extract (0.4%), batch RDP/SR/074) it was less than 10 cfu/g. The “% microbial reduction” value in data set [3] (0.2% of input extract, batch RDP/SR/073) is on record as more than 99%; in [3] (0.4% of input extract, batch RDP/SR/074) it was more than 99%. In addition, the “Reduction in bacterial counts” value in [3] (setting [14]) came to 4 logs. The “Reduction of bacterial load” value in data set [3] (setting [14]) was 99.99%. Moreover, the “Antibacterial activity (FIG. 1)” value in data set [4] was “effective antibacterial activity”. In [5], the “Anti-fungal activity (FIG. 1)” value is reported as “anti-fungal activity”. The “Antibacterial activity (FIG. 2)” value in [6] is “effective antibacterial activity”. Further, in [7], the Shelf life is reported as 5 years. Also, the “Reduction of viable bacteria” value in [8] is listed as 1.8-2.8 logs. Also, in [9], the “Antimicrobial activity” value is reported as “effective”. The “Stability in acetic acid and cyanuric acid as a solution (inference)” value in data set [10] is “stable”. The “Survival of cell (FIG. 3B)” value in [11] is on record as “increase the survival of cell”. Also, the inhibition at 600 ppm in [12] is more than 100%. Besides, the “Metabolism / tissue accumulation” value in data set [13] was “metabolized fast with a short half-life and not accumulated in tissues”.
